A short description of data set [1]: Absorption test, pulmonary administration (2 mg/kg) of suspension. Type of data set: in vivo, rhesus monkeys. The protocol: 1. Pulmonary Administration (2 mg/kg)
Each of three male rhesus monkeys (mean body weight: 3.35 kg, age: 5) was anesthetized with ketamine and, after inserting a bronchial catheter and inserting an administration tube inside the catheter, the suspension produced in Preparation Example 1 was administered into the lung in a dose of 2 mg/kg. Before and after administration (0.25, 0.5, 1, 2, 3, 4, 6, and 8 hours), blood was collected from the cubital cutaneous vein and the obtained blood was centrifugally separated to obtain blood plasma, and then the concentration of the compound 1 was measured.
(§1) 5. Intravenous Administration (0.4 mg/kg)
(§2) The preparation produced in Comparative Example 3 was intravenously administered to each of three male cynomolgus monkeys (mean body weight: 4 kg, age: 5 to 6) in the concentration of 0.4 mg/kg. After administration, blood was collected from the cubital cutaneous vein and the obtained blood was centrifugally separated to obtain blood plasma, and then the concentration of the compound 1 was measured.
(§3) Also, a bioavailability (BA (%)) was calculated from the obtained results.
(§4) BA denotes a numerical value represented by “(AUC of pulmonary administration/dose of pulmonary administration)/(AUC of intravenous administration/dose of intravenous administration)×100” (%), and AUC denotes an area under the blood concentration time curve (ng·hr/ml).

Data set [2] in a line: Absorption test, pulmonary administration (0.2 mg/kg) of suspension. Format: in vivo. Conditions: cynomolgus monkey, plasma, suspension of Preparation Example 2, male cynomolgus monkeys, relative to intravenous 0.4 mg/kg, read-out: bioavailability (BA). The protocol: 2. Pulmonary Administration (0.2 mg/kg)
Each of three male cynomolgus monkeys (mean body weight: 3.5 to 4.5 kg, age: 5 to 6) was anesthetized with ketamine and, after inserting a bronchial catheter and inserting an administration tube inside the catheter, the suspension produced in Preparation Example 2 was administered into the lung in a dose of 0.2 mg/kg. Before and after administration (0.25, 0.5, 1, 2, 3, 4, 8 and 12 hours), blood was collected from the cephalic vein and the obtained blood was centrifugally separated to obtain blood plasma, and then the concentration of the compound 1 was measured.
as §1, §2, §3, §4

A short description of data set [3]: Absorption test, oral administration (3 mg/kg) of microemulsion preparation. Type of data set: in vivo. As to conditions: rhesus monkey, plasma, preparation of Comparative Example 1, male rhesus monkeys, relative to intravenous 0.4 mg/kg, read-out: bioavailability (BA). The protocol:
3. Oral Administration (3 mg/kg)
An oral administration tube was inserted through the mouth of each of three male rhesus monkeys (mean body weight: 3.5 kg, age: 3) and 5.25 mL (3 mg/kg) of the preparation produced in Comparative Example 1 was orally administrated. After administration (0.5, 1, 2, 4, and 6 hours), blood was collected from the cubital cutaneous vein and the obtained blood was centrifugally separated to obtain blood plasma, and then the concentration of the compound 1 was measured.
as §1, §2, §3, §4

A short description of data set [4]: Particle size measurement by laser diffraction particle size distribution analyzer. Format: physicochemical. As to conditions: volume mean diameter. The protocol: The “mean particle size” means a particle size which represents a group of particles, when the group of particles is composed of a lot of particles each having a non-uniform size. The mean particle size includes, but is not limited to, weighting averages such as a number mean diameter, a length mean diameter, an area mean diameter, a volume mean diameter and the like, and means the volume mean diameter in the present invention.
For the measurement of the particle size, a hexane solution (20 mM) of Aerosol OT was used as a disperse medium. Particles to be measured were placed in a test tube and 1 mL of the disperse medium was added to obtain a suspension. The suspension was subjected to an ultrasonic treatment for one minute and the particle size was measured using a laser diffraction particle size distribution analyzer (SALD-2100: Shimadzu Corporation). In the case of measuring the particle size of particles in the suspension, an aqueous 0.1% Polysorbate 80 solution was used as the disperse medium in place of Aerosol OT.

The nature of data set [5]: Solubility in water. Type of data set: physicochemical.

The source of these data is patent US20090022915A1, “PARTICLE AND PREPARATION CONTAINING THE PARTICLE” (ONO PHARMACEUTICAL CO., LTD.,, priority 2005, published 2009).

Turning to `CC(C)(C)OC(=O)N1CSC[C@H]1C(=O)N[C@@H](CSCC1CCCCC1)C(=O)NC1CCN(Cc2ccccc2)CC1` [compound 1, Tert-butyl (4R)-4-{[((1R)-2-[(1-benzylpiperidin-4-yl)amino]-1-{[(cyclohexylmethyl)thio]methyl}-2-oxoethyl)amino]carbonyl}-1,3-thiazolidine-3-carboxylate], in data set [1] (pulmonary administration versus oral administration), the “improvement in BA” value is at least 450 times. Further, the bioavailability in data set [1] (rhesus monkey, plasma, pulmonary administration 2 mg/kg, suspension of Preparation Example 1, male rhesus monkeys, relative to intravenous 0.4 mg/kg, read-out: bioavailability (BA)) came out at 93.4%; in data set [2] it was 103%; in data set [3], 0.2%. Moreover, the “Mean particle size (μm)” value in data set [4] is “about 120 μm”. Besides, the solubility in water entry in data set [5] was “poorly soluble in water”.
